{"source": "patent US6745512B1", "about": "(priority 1990, dated 2004)", "tested_on": "harmful organisms such as smut (Ustilago nuda), Fusaria and Septoria nodorum", "assay": "combined use of low energy electrons with subsequent fungicidal treatment of the seeds", "settings": "low energy electrons followed by fungicidal treatment of the seeds; 15 g, 30 g/100 kg seeds"}
{"compound": "Cc1oc(C)c(C(=O)Nc2ccccc2)c1C", "note": "[Methfuroxam]", "values": [{"measurement": "harmful organisms combated", "value": "95 to 100", "unit": "%"}]}
